Laboratory results from US11932595B2, “VDR-silent vitamin D derivative as inhibitors of SREBP and pharmaceutical use thereof” (KYOTO UNIVERSITY, priority 2020, dated 2024).

Key:
SREBP-responsive genes = experiment: Short-term in vivo model (fasting/refeeding): hepatic mRNA of SREBP-responsive genes by real-time PCR; design: species or system mice; details: for hepatic expression of SREBP-response genes ACC1 and FASN versus vehicle: 10 mg/kg intraperitoneally once every 24 hours, fasted 48 h/refed 48 h, n=3, FIG. 5C
Procedure: (§1) To quickly and simultaneously examine their SREBP inhibitory activity and VDR-derived calcemic activity in vivo, a short-term in vivo screening system of mice was established. With reference to the previous report (Horton, J. D. et al. Proc. Natl. Acad. Sci. U.S.A. 1998, 95, 5987-5992.), mice were fasted for 48 hours then refed a special diet (low fat, high carbohydrate diet, lacking in vitamin D) for 48 hours before sacrifice.
(§2) C57BL/6 and oh/oh mice were purchased from CLEA Japan and Charles River Japan, Inc., respectively. Animal experiments were carried out at the University of Tokyo and Charles River Laboratories. Low fat, high carbohydrate diet, lacking vitamin D was custom made by Research Diets, Inc. Compounds disclosed herein and 25(OH)D3 were dissolved in ethanol/Tween 20 (9:1) to obtain stock solution and then diluted 10-fold with PBS immediately before administration to mice.
(§3) 10 mg/kg compounds or vehicle control were administered intraperitoneally once every 24 hours during the fasting and refeeding.
Relative mRNA levels of SREBP-responsive genes were determined by real-time PCR in the livers obtained from the mice with free access to a normal diet or fasted and refed a special diet (means SEM, n=3 per group), *p<0.05.
Expression levels of SREBP-responsive genes were determined by real-time PCR in the livers obtained from the mice treated with indicated compounds (10 mg/kg) according to the protocol illustrated in FIG. 5A. Data are expressed as relative expression to the mean value of vehicle-treated mouse liver (means±SEM, n=3 per group), *p<0.05 (FIG. 5C).
Relative mRNA levels of SREBP-responsive genes were determined by real-time PCR in the livers obtained from the indicated mice Data are means±SEM (fed mice, n=3; others, n=6), *p<0.05 (FIG. 5E).

[1] = Short-term in vivo model: serum calcium levels; design: species or system mice; details: 10 mg/kg intraperitoneally, after 4 days, n=3, FIG. 5D
Procedure: as §1, §2, §3
Following sacrifice, mouse livers were fixed in 10% neutral-buffered formalin, embedded in paraffin, sectioned, and stained with H&E. Hepatic lipids were extracted with chloroform/methanol (2:1 v/v), and TG and cholesterol contents were measured with Triglyceride Reagent Set (Pointe Scientific) and Cholesterol E (Wako), respectively. Serum levels of ALT, TG, glucose, cholesterol, and calcium were measured in SRL Inc. (Tokyo). All experiments were approved by the Ethics Committee for Animal Experimentation of the University of Tokyo and Charles River Laboratories Japan, and were conducted in accordance with the Guidelines for the Care and Use of Laboratory Animals.
Serum calcium levels in the mice treated with vehicle, compounds, or 25(OH)D3 were determined (means±SEM, n=3 per group), *p<0.05 (FIG. 5D).

VDR = VDR reporter assay (Cignal Vitamin D Receptor Reporter) in CHO-K1 cells; assay type: cell-based; details: 5 μM compound, lipid-free medium, FIGS. 2 and 4
Procedure: (§4) Cell Culture: CHO-K1 cells were maintained in medium A (1:1 mixture of Ham's F-12 medium and DMEM, supplemented with 100 units/mL penicillin, 100 μg/mL streptomycin sulfate, and 5% [v/v] fetal bovine serum) at 37° C. in a humidified 5% CO2 incubator.
(§5) CHO-K1 cells were seeded into 96-well plates at 8×10^3 cells per well in medium A and incubated for 24 h. For SREBP reporter assay, cells were co-transfected with an SRE-1-driven luciferase reporter plasmid (pSRE-Luc) and an actin promoter-driven β-galactosidase expression plasmid (pAc-13-gal) at a 20:1 ratio, using FuGENE HD Transfection Reagent (Promega) according to the manufacturer's protocol.
For VDR reporter assay, Cignal Vitamin D Receptor Reporter (QIAGEN) was transfected instead of pSRE-Luc.
(§6) After 20 h, the medium was changed to medium B (1:1 mixture of Ham's F-12 medium and DMEM, supplemented with 100 units/mL penicillin, 100 μg/mL streptomycin sulfate, 5% [v/v] lipid-depleted serum, 50 μM compactin (Tokyo Chemical Industry), and 50 μM lithium mevalonate (Sigma-Aldrich) containing the specific test compounds. After 24 h incubation, the cells in each well were lysed with 100 μL of 1× Reporter Lysis Buffer (Promega), and 50 μL of aliquots were used to measure luciferase and 13-gal activities. Luciferase activity was measured using the Steady-Glo Luciferase Assay System (Promega), and 13-gal activity was measured using the 13-Galactosidase Enzyme Assay System (Promega). Luciferase activity was normalized to 13-gal activity.
For the VDR assay, CHO-K1 cells were treated with 5 μM of the compounds in a lipid-free medium. The same experiment using 25(OH)D3 (1) was performed as control. Values are mean±SD.

SREBP/SCAP = details: Nagata, ACS Chem. Biol. 2019; cited from earlier work
[2] = cited from earlier work
SREBP = SREBP luciferase reporter assay (pSRE-Luc) in CHO-K1 cells; assay type: cell-based; details: for SREBP inhibitory activity (expression of SREBP-responsive luciferase reporter gene): CHO-K1 cells, 5 μM compound, lipid-free medium, 24 h, FIGS. 1 and 3
Procedure: as §4, §5, §6
[…] The same experiment using of 25(OH)D3 (1) was performed as control. Values are mean±SD.

[3] = Maynard et al. J Med. Chem. 1994; cited from earlier work

Compound | VDR activity (VDR reporter activation) (VDR) | SREBP inhibitory activity (expression of SREBP-responsive luciferase reporter gene) (SREBP) | other results
C[C@H](CCCC(O)(C(F)(F)F)C(F)(F)F)[C@H]1CC[C@H]2/C(=C/Cn3cc(-c4ccccc4)nn3)CCC[C@]12C [Compound 38, (R)-1,1,1-Trifluoro-6-{(1R,3aS,7aR,E)-7a-methyl-4-[2-(4-phenyl-1H-1,2,3-triazol-1-yl)ethylidene]octahydro-1H-inden-1-yl}-2-(trifluoromethyl)heptan-2-ol] | – | – | hepatic expression of SREBP-response genes ACC1 and FASN versus vehicle (SREBP-responsive genes): significantly suppressed; serum calcium levels [1]: elevated levels of serum calcium
C[C@H](CCCC(C)(C)O)[C@H]1CC[C@H]2/C(=C/Cn3cc(CCCCO)nn3)CCC[C@]12C [Compound 29, 6-[(1R,3aS,7aR,E)-4-{2-[4-(4-Hydroxybutyl)-1H-1,2,3-triazol-1-yl]ethylidene}-7a-methyloctahydro-1H-inden-1-yl]-2-methylheptan-2-ol] | detectable VDR activity | – | –
Cc1ccc(S(=O)(=O)N[C@@H]2C/C(=C/C=C3\CCC[C@]4(C)[C@@H]([C@H](C)CCCC(O)(C(F)(F)F)C(F)(F)F)CC[C@@H]34)C[C@@H](F)C2)cc1 [Compound 3] | – | – | effect on SREBP/SCAP and VDR activity in cultured cells (SREBP/SCAP): selectively impaired SREBP/SCAP without eliciting VDR activity; calcemic activity in vivo ([2]; high doses): residual calcemic activity; bioavailability ([2]; in vivo): low
CC1=C(/C=C\C2=CCC[C@@]3(C)[C@@H]2CC[C@@H]3[C@H](C)CCCC(C)(C)O)C[C@@H](O)C[C@@H]1O [14-epi-25(OH) D3, reference compound] | – | – | expression of an SREBP-responsive luciferase reporter (SREBP; screening of in-house collection, data not shown): comparable level to 25(OH)D3; calcemic action [3]: markedly decreased calcemic action
C[C@H](CCCC(C)(C)O)[C@H]1CC[C@H]2/C(=C/C(=O)N3CCCCC3)CCC[C@]12C [Compound 19, 2-{(1R,3 aS,7 aR,E)-1-[(R)-6-Hydroxy-6-methylheptan-2-yl]-7a-methyloctahydro-4H-inden-4-ylidene}-1-(piperidin-1-yl)ethan-1-one] | – | little effect | –
C[C@H](CCCC(C)(C)O)[C@H]1CC[C@H]2/C(=C/Cn3cnnn3)CCC[C@]12C [Compound 21, (R)-6-{(1R,3aS,7aR,E)-4-[2-(1H-Tetrazol-1-yl)ethylidene]-7a-methyloctahydro-1H-inden-1-yl}-2-methylheptan-2-ol] | detectable VDR activity | – | –
C[C@H](CCC(F)(F)C(C)(C)O)[C@H]1CC[C@H]2/C(=C/Cn3nnc(-c4ccc(F)cc4)n3)CCC[C@]12C [Compound 49, 3,3-Difluoro-6-[(1R,3aS,7aR,E)-4-{2-[5-(4-fluorophenyl)-2H-tetrazol-2-yl]ethylidene}-7a-methyloctahydro-1H-inden-1-yl]-2-methylheptan-2-ol] | lacked in VDR activity | maintained SREBP inhibitory activities | hepatic expression of SREBP-response genes ACC1 and FASN versus vehicle (SREBP-responsive genes): significantly suppressed; elevated hepatic expression of the three SREBP-responsive genes ACC1, FASN and SCD1 (SREBP-responsive genes; 10 mg/kg intraperitoneally, fasting/refeeding, FIG. 5C): mitigated the elevated expression; serum calcium levels [1]: no detectable increase
C[C@H](CCCC(C)(C)O)[C@H]1CC[C@H]2/C(=C/C(=O)N3CCOCC3)CCC[C@]12C [Compound 20, 2-{(1R,3aS,7aR,E)-1-[(R)-6-Hydroxy-6-methylheptan-2-yl]-7a-methyloctahydro-4H-inden-4-ylidene}-1-morpholinoethan-1-one] | – | little effect | –
C[C@H](CCC(F)(F)C(C)(C)O)[C@H]1CC[C@H]2/C(=C/Cn3nnnc3-c3ccc(F)cc3)CCC[C@]12C [Compound 51, (R)-3,3-Difluoro-6-[(1R,3aS,7aR,E)-4-{2-[5-(4-fluorophenyl)-1H-tetrazol-1-yl]ethylidene}-7a-methyloctahydro-H-inden-1-yl]-2-methylheptan-2-ol] | lacked in VDR activity | maintained SREBP inhibitory activities | –
C[C@H](CCC(F)(F)C(C)(C)O)[C@H]1CC[C@H]2/C(=C/Cn3cc(-c4ccc(F)cc4)nn3)CCC[C@]12C [Compound 47, (R)-3,3-Difluoro-6-[(1R,3aS,7aR,E)-4-{2-[4-(4-fluorophenyl)-1H-1,2,3-triazol-1-yl]ethylidene}-7a-methyloctahydro-1H-inden-1-yl]-2-methylheptan-2-ol] | lacked in VDR activity | maintained SREBP inhibitory activities | –
C[C@H](CCCC(C)(C)O)[C@H]1CC[C@H]2/C(=C/Cn3cc(-c4ccccn4)nn3)CCC[C@]12C [Compound 26, (R)-2-Methyl-6-[(1R,3aS,7aR,E)-7a-methyl-4-{2-[4-(pyridin-2-yl)-1H-1,2,3-triazol-1-yl]ethylidene}octahydro-1H-inden-1-yl]heptan-2-ol] | detectable VDR activity | – | –
C[C@H](CCCC(O)(C(F)(F)F)C(F)(F)F)[C@H]1CC[C@H]2/C(=C/Cn3cc(-c4ccc(F)cc4)nn3)CCC[C@]12C [Compound 39, (R)-1,1,1-Trifluoro-6-[(1R,3aS,7aR,E)-4-{2-[4-(4-fluorophenyl)-1H-1,2,3-triazol-1-yl]ethylidene}-7a-methyloctahydro-1H-inden-1-yl]-2-(trifluoromethyl)heptan-2-ol] | lacked in VDR activity | maintained SREBP inhibitory activities | hepatic expression of SREBP-response genes ACC1 and FASN versus vehicle (SREBP-responsive genes): significantly suppressed; serum calcium levels [1]: elevated levels of serum calcium
C[C@H](CCCC(C)(C)O)[C@H]1CC[C@H]2/C(=C/Cn3ncnn3)CCC[C@]12C [Compound 22] | detectable VDR activity | – | –
